Test results as given in patent US10167300B2, “Metalloenzyme inhibitor compounds as fungicides” (priority 2014, dated 2019).
Read-outs that look alike come from different tables or passages of the source.

Assay: Type B (low volume, EC formulation, track sprayer 200 L/ha) assay, leaf blotch of wheat, SEPTTR field isolate (FI SEPTTR)
Assay type: in vivo, Mycosphaerella graminicola on wheat plants (variety Yuma)
Details: Zymoseptoria tritici, 72 h, 100 g/ha
Procedure: Example A: Evaluation of Fungicidal Activity: Leaf Blotch of Wheat (Mycosphaerella graminicola; Anamorph: Septoria tritici; Bayer Code SEPTTR)
For Type A assays, technical grades of the experimental fungicides in Table 4 below were dissolved in acetone, and then mixed with nine volumes of water containing 110 ppm Triton X-100. The fungicide solutions were applied onto wheat seedlings using an automated booth sprayer. For Type B assays, emulsifiable concentrate (EC) formulations of technical grades of the experimental fungicides in Table 4 below were prepared at 10% (w/v), and then mixed with 150 volumes of 0.1% Trycol 5941. These solutions were applied onto wheat seedlings using an automated track sprayer at 200 L/ha. All sprayed plants were allowed to air dry prior to further handling.
Wheat plants (variety Yuma) were grown from seed in a greenhouse in 50% mineral soil/50% soil-less Metro mix until the first leaf was fully emerged, with 7-10 seedlings per pot. Prior to or after application of experimental fungicides, plants were inoculated either with spores of a standard laboratory SEPTTR isolate (SI SEPTTR) or with spores from a SEPTTR field isolate collected from Wellsbourne, England in 2012 (FI SEPTTR). After inoculation the plants were kept for 3 days at 20° C. in 100% relative humidity (one day in a dark dew chamber followed by two days in a lighted dew chamber). Plants were then transferred to a 20° C. greenhouse for disease development. When disease symptoms were fully expressed on untreated plants, infection levels on treated plants were assessed on a scale of 0 to 100 percent disease severity. Percent disease control was calculated using the ratio of disease severity on treated plants relative to untreated plants.

[1] = field isolate, low volume EC, 3 Day Curative, wheat (Yuma), read-out: Disease Control, FI SEPTTR Type B Assay (100 g/ha) 3 DC
[2] = field isolate, low volume EC, 3 Day Protectant, wheat (Yuma), read-out: Disease Control, FI SEPTTR Type B Assay (100 g/ha) 3 DP
[3] = SEPTTR field isolate, low volume Type B assay, 3 Day Curative, wheat leaf blotch, read-out: Disease Control, FI SEPTTR Type B Assay (100 g/ha) 3 DC
[4] = SEPTTR field isolate, low volume Type B assay, 3 Day Protectant, wheat leaf blotch, read-out: Disease Control, FI SEPTTR Type B Assay (100 g/ha) 3 DP

Row | SMILES | pest or weed control at 100 g/ha [1] | pest or weed control at 100 g/ha [2] | pest or weed control at 100 g/ha [3] | pest or weed control at 100 g/ha [4]
1 | COc1ncncc1C(O)(c1ccc(-c2ccc(OC(F)(F)F)cc2C)cn1)C(C)(C)C (stereo not drawn) [Compound 222] | 40 to 59% | 60 to 79% |  | 
2 | CCOC(CC)(c1cncnc1)c1ccc(-c2ccc(OC(F)(F)F)cc2F)cn1 (stereo not drawn) [Compound 190] | 60 to 79% | 40 to 59% |  | 
3 | Cc1cc(OC(F)(F)F)ccc1-c1ccc(C(O)(c2cnccn2)C(C)(C)C)nc1 (stereo not drawn) [Compound 224] | 40 to 59% | 60 to 79% |  | 
4 | COc1ncncc1C(O)(c1ccc(-c2ccc(C(C)(C)C#N)cc2)cn1)C(C)(C)C (stereo not drawn) [Compound 240] | 80 to 100% | 80 to 100% |  | 
5 | COc1ncncc1C(O)(c1ccc(-c2ccc(OC(F)F)cc2)cn1)C(C)(C)C (stereo not drawn) [Compound 273] |  |  | < 40% | 80 to 100%
6 | COC(c1cncnc1)(c1ccc(-c2ccc(OC(F)(F)F)cc2C)cn1)C(C)(C)C (stereo not drawn) [Compound 261] |  |  | 80 to 100% | 80 to 100%
7 | CCC(O)(c1cncnc1)c1ccc(-c2ccc(OC(F)(F)F)cc2F)cn1 (stereo not drawn) [Compound 205] | 40 to 59% | 80 to 100% |  | 
8 | CC#CC(OCC)(c1cncnc1)c1ccc(-c2ccc(OC(F)(F)F)cc2)cn1 (stereo not drawn) [Compound 242] | < 40% | 40 to 59% |  | 
9 | CC(O)(c1cncnc1)c1ccc(-c2ccc(OC(F)(F)F)cc2F)cn1 (stereo not drawn) [Compound 221] | < 40% | 40 to 59% |  | 
10 | COc1cc(C(C)(C)C#N)ccc1-c1ccc(C(O)(c2cncnc2)C(C)(C)C)nc1 (stereo not drawn) [Compound 263] |  |  | 80 to 100% | 80 to 100%
11 | OC(c1cncnc1)(c1ccc(-c2ccc(OC(F)(F)F)cc2F)cn1)C1CC1 (stereo not drawn) [Compound 184] | < 40% | 40 to 59% |  | 
12 | C#CCOC(c1cncnc1)(c1ccc(-c2ccc(OC(F)(F)F)cc2)cn1)C1CC1 (stereo not drawn) [Compound 255] | < 40% | 60 to 79% |  | 
13 | CCC(O)(c1cncnc1)c1ccc(-c2ccc(OC(F)(F)F)cc2)cn1 (stereo not drawn) [Compound 258] |  |  | < 40% | 60 to 79%
14 | CC(C)(C)C(O)(c1ccc(-c2ccc(OCC(F)(F)F)cc2)cn1)c1cnccn1 (stereo not drawn) [Compound 225] | 80 to 100% | 60 to 79% |  | 
15 | CCC(OC)(c1cncnc1)c1ccc(-c2ccc(OC(F)(F)F)cc2F)cn1 (stereo not drawn) [Compound 269] |  |  | 40 to 59% | 80 to 100%
16 | CCOC(CC)(c1cncnc1)c1ccc(-c2ccc(OC(F)(F)F)cc2)cn1 (stereo not drawn) [Compound 244] | < 40% | 40 to 59% |  | 
17 | CCOC(c1cncnc1)(c1ccc(-c2ccc(OC(F)(F)F)cc2)cn1)C(C)(C)C (stereo not drawn) [Compound 198] | < 40% | 80 to 100% |  | 
18 | CC(C)(C#N)c1ccc(-c2ccc(C(O)(c3cncnc3)C(C)(C)C)nc2)c(C#N)c1 (stereo not drawn) [Compound 175, 5-(2-cyanopropan-2-yl)-2-(6-(1-hydroxy-2,2-dimethyl-1-(pyrimidin-5-yl)propyl)pyridin-3-yl)benzonitrile] | 80 to 100% | 80 to 100% |  | 
19 | COC(c1cncnc1)(c1ccc(-c2ccc(C(C)(C)C#N)cc2)cn1)C(C)(C)C (stereo not drawn) [Compound 214] | < 40% | 80 to 100% |  | 
20 | COC(c1cncnc1)(c1ccc(-c2ccc(OC(F)(F)F)cc2F)cn1)C1CC1 (stereo not drawn) [Compound 200] | < 40% | 80 to 100% |  | 
21 | Cc1cc(C(C)(C)C#N)ccc1-c1ccc(C(O)(c2cncnc2)C(C)(C)C)nc1 (stereo not drawn) [Compound 223] | 80 to 100% | 80 to 100% |  | 
22 | CC(C)(C)C(O)(c1ccc(-c2ccc(C3(C#N)CC3)cc2)cn1)c1cnccn1 (stereo not drawn) [Compound 229] | 60 to 79% | 60 to 79% |  | 
23 | CC(C)(C)C(O)(c1ccc(-c2ccc(OC(F)(F)F)cc2)cn1)c1cnccn1 (stereo not drawn) [Compound 207] | 40 to 59% | 60 to 79% |  | 
24 | COC(c1cncnc1)(c1ccc(-c2ccc(C(C)(C)C#N)cc2C)cn1)C(C)(C)C (stereo not drawn) [Compound 267] |  |  | 60 to 79% | 80 to 100%

Row | SMILES | pest or weed control at 100 g/ha [1] | pest or weed control at 100 g/ha [2] | pest or weed control at 100 g/ha [3] | pest or weed control at 100 g/ha [4]
25 | COc1ncncc1C(O)(c1ccc(-c2ccc(OCC(F)(F)F)nc2)cn1)C(C)(C)C (stereo not drawn) [Compound 218] | < 40% | 80 to 100% |  | 
26 | CC(C)(C)C(O)(c1ccc(-c2ccc(OCC(F)(F)F)nc2)cn1)c1cnccn1 (stereo not drawn) [Compound 180] | 60 to 79% | 40 to 59% |  | 
27 | CC#CC(OCC)(c1cncnc1)c1ccc(-c2ccc(OC(F)(F)F)cc2F)cn1 (stereo not drawn) [Compound 204] | < 40% | 60 to 79% |  | 
28 | CC(C)(C#N)c1ccc(-c2ccc(C(O)(c3cncc(F)c3)C(C)(C)C)nc2)cc1 (stereo not drawn) [Compound 262] |  |  | 80 to 100% | 80 to 100%
29 | CCC(C#N)(CC)c1ccc(-c2ccc(C(O)(c3cncnc3)C(C)(C)C)nc2)c(F)c1 (stereo not drawn) [Compound 268] |  |  | 80 to 100% | 80 to 100%
30 | CC(C)(C)C(O)(c1cncnc1)c1ccc(-c2ccc(C3(C#N)CCC3)cc2F)cn1 (stereo not drawn) [Compound 251] | 80 to 100% | 80 to 100% |  | 
31 | CCOC(C)(c1cncnc1)c1ccc(-c2ccc(OC(F)(F)F)cc2F)cn1 (stereo not drawn) [Compound 215] | < 40% | < 40% |  | 
32 | CC(C)(C)C(O)(c1ccc(-c2ccc(OC(F)(F)F)cn2)cn1)c1cnccn1 (stereo not drawn) [Compound 174] | 60 to 79% | 80 to 100% |  | 
33 | CC(C)(C#N)c1ccc(-c2ccc(C(O)(c3cncnc3)C(C)(C)C)nc2)c(Cl)c1 (stereo not drawn) [Compound 265] |  |  | 80 to 100% | 80 to 100%
34 | COC(c1cncnc1)(c1ccc(-c2ccc(OCC(F)(F)F)cc2)cn1)C(C)(C)C (stereo not drawn) [Compound 257] |  |  | 60 to 79% | 60 to 79%
35 | COC(c1cncnc1)(c1ccc(-c2ccc(OC(F)(F)F)cc2F)cn1)C(C)(C)C (stereo not drawn) [Compound 211] | 80 to 100% | 80 to 100% |  | 
36 | CC(C)C(O)(c1cncnc1)c1ccc(-c2ccc(OC(F)(F)F)cc2F)cn1 (stereo not drawn) [Compound 230] | < 40% | 80 to 100% |  | 
37 | Cc1cc(C(C)(C)C#N)cnc1-c1ccc(C(O)(c2cncnc2)C(C)(C)C)nc1 (stereo not drawn) [Compound 239] | 80 to 100% | 80 to 100% |  | 
38 | CCOC(c1cncnc1)(c1ccc(-c2ccc(OC(F)(F)F)cc2)cn1)C(C)C (stereo not drawn) [Compound 272] |  |  | < 40% | 60 to 79%
39 | Cc1cc(C(C)(C)C#N)cc(C)c1-c1ccc(C(O)(c2cncnc2)C(C)(C)C)nc1 (stereo not drawn) [Compound 252] | 80 to 100% | 80 to 100% |  | 
40 | CC(C)(C#N)c1ccc(-c2ccc(C(O)(c3cncnc3)C(C)(C)C)nc2)c(F)c1 (stereo not drawn) [Compound 226] | 80 to 100% | 80 to 100% |  | 
41 | COc1ncncc1C(O)(c1ccc(-c2ccc(OCC(F)(F)F)cn2)cn1)C(C)(C)C (stereo not drawn) [Compound 186] | 40 to 59% | 80 to 100% |  | 
42 | CC(C)(C)C(O)(Cc1cncnc1)c1ccc(-c2ccc(C3(C#N)CC3)cc2)cn1 (stereo not drawn) [Compound 178] | < 40% | 60 to 79% |  | 
43 | CC(C)(C#N)c1ccc(-c2ccc(C(O)(c3cnccn3)C(C)(C)C)nc2)cc1 (stereo not drawn) [Compound 188] | 60 to 79% | 80 to 100% |  | 
44 | CCC(C#N)(CC)c1ccc(-c2ccc(C(O)(c3cncnc3)C(C)(C)C)nc2)c(C)c1 (stereo not drawn) [Compound 264] |  |  | 80 to 100% | 80 to 100%
45 | CC(C)(C)C(O)(Cc1cccnc1)c1ccc(-c2ccc(C3(C#N)CC3)cc2)cn1 (stereo not drawn) [Compound 227] | < 40% | 40 to 59% |  | 
46 | CC(C)(C)C(O)(c1cncnc1)c1ccc(-c2ccc(F)cc2F)cn1 (stereo not drawn) [Compound 164] | 80 to 100% | 80 to 100% |  | 
47 | COC(c1cncnc1)(c1ccc(-c2ccc(OC(F)(F)F)cc2)cn1)C(C)C (stereo not drawn) [Compound 194] | < 40% | 80 to 100% |  | 
48 | Cc1cc(C2(C#N)CCC2)ccc1-c1ccc(C(O)(c2cncnc2)C(C)(C)C)nc1 (stereo not drawn) [Compound 212] | 80 to 100% | 80 to 100% |  | 
